Starred links: 1 amine or outer side, 2 acyl side, 3 side chain; linkers in the order of their positions; H or OH if unused. Positions of bridges follow the written chain, without caps; N, C: chain ends. Non-standard residues stand in square brackets, D forms with d. Residues, ends and D or L forms follow the SMILES beside them. Trp(2-yl) = O=C([C@H](Cc1c([*:3])[nH]c2ccccc12)N[*:1])[*:2]; Leu(4R-OH,5-OH) = C[C@](O)(CO)C[C@H](N)C(=O)O; cisHyp = O=C(O)[C@@H]1C[C@H](O)CN1
Experiments:
[1] = molecular target: T1, Solute carrier organic anion transporter family member 1B2 (OATP1B2) (Rattus norvegicus, UniProt Q9QZX8); assay: (§1) TP_TRANSPORTER: uptake in Xenopus laevis oocytes; format: functional, cell-based, Oocyte; settings: Xenopus laevis oocytes expressing the transporter
T1 sequence (Q9QZX8 whole entry): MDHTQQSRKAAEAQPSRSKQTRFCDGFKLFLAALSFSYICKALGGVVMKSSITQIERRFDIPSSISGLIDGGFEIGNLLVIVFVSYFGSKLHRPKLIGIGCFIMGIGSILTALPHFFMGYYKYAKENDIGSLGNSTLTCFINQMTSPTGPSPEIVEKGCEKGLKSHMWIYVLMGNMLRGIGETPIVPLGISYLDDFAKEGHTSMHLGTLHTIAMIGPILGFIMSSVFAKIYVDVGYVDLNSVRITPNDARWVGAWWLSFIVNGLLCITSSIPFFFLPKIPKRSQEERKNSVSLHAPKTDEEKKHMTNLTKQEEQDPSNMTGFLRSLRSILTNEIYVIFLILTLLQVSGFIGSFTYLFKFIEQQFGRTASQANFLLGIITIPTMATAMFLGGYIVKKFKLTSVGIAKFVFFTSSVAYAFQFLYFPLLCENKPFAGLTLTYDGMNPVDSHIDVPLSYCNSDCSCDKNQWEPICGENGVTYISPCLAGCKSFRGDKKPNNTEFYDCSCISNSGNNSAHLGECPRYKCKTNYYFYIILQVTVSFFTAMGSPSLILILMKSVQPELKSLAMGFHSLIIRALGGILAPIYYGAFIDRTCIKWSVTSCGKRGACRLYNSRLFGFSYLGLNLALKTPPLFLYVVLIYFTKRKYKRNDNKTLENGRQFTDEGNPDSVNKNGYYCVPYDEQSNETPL

[2] = molecular target: T2, Solute carrier organic anion transporter family member 1B3 (OATP1B3) (Homo sapiens, UniProt Q9NPD5); assay: as §1; format: functional, cell-based, Oocyte; settings: Xenopus laevis oocytes expressing the transporter
T2 sequence (Q9NPD5 whole entry): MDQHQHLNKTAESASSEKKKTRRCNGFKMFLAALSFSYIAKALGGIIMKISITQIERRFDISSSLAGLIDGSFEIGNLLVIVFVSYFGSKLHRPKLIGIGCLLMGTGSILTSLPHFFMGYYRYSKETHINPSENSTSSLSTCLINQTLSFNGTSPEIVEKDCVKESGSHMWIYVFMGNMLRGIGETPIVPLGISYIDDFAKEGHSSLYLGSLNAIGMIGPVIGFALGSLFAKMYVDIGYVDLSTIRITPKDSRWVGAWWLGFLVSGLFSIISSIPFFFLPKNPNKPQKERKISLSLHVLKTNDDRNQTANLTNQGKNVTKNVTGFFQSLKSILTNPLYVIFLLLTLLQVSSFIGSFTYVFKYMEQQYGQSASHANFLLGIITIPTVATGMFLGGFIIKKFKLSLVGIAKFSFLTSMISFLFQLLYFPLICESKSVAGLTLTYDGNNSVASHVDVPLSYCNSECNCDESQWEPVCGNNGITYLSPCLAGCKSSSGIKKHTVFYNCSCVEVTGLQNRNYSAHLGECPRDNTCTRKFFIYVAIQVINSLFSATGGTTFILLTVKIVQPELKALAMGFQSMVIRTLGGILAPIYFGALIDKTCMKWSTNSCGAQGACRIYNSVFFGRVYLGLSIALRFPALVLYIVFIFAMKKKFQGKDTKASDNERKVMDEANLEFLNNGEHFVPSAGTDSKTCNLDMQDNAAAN

[3] = molecular target: T3, Solute carrier organic anion transporter family member 1B1 (OATP1B1) (Homo sapiens, UniProt Q9Y6L6); assay: as §1; format: functional, cell-based, Oocyte; settings: Xenopus laevis oocytes expressing the transporter
T3 sequence (Q9Y6L6 whole entry): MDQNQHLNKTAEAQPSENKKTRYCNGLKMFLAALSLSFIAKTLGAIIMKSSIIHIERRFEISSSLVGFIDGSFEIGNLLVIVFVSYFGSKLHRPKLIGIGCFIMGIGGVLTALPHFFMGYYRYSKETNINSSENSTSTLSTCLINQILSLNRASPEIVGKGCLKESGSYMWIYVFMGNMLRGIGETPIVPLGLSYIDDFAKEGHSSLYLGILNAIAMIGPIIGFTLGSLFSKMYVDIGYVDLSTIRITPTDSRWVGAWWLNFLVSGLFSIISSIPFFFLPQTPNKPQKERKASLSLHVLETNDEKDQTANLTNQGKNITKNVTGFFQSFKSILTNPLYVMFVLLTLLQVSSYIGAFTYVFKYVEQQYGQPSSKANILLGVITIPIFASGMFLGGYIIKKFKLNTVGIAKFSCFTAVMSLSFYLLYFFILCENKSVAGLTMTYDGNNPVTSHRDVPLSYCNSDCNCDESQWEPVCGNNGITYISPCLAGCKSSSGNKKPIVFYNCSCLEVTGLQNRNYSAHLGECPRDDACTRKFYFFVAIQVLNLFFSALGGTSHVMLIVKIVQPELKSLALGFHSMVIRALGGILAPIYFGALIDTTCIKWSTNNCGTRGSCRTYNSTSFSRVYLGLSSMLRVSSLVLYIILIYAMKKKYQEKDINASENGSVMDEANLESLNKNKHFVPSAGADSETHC

[4] = molecular target: T4, Solute carrier organic anion transporter family member 1A4 (Rattus norvegicus, UniProt O35913); assay: as §1; format: functional, cell-based; settings: oocyte
T4 sequence (O35913 whole entry): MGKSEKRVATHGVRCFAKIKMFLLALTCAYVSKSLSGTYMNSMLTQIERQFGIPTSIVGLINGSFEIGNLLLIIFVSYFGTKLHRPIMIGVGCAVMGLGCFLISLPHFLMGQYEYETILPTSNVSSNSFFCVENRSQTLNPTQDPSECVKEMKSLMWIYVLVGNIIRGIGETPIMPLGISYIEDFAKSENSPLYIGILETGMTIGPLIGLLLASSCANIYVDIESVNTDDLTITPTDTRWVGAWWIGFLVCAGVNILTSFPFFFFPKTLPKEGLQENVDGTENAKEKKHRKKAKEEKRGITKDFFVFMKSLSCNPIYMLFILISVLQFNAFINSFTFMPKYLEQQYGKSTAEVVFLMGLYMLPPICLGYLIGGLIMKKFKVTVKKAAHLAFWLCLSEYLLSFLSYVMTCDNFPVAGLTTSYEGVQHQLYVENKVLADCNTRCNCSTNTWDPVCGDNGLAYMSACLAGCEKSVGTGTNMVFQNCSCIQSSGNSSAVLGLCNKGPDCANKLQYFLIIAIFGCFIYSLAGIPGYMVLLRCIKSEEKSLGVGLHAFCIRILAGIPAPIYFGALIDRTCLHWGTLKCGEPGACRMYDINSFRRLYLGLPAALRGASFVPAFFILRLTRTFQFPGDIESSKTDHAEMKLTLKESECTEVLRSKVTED

[5] = molecular target: T5, Solute carrier organic anion transporter family member 2B1 (Homo sapiens, UniProt O94956); assay: as §1; format: functional, cell-based; settings: oocyte
T5 sequence (O94956 whole entry): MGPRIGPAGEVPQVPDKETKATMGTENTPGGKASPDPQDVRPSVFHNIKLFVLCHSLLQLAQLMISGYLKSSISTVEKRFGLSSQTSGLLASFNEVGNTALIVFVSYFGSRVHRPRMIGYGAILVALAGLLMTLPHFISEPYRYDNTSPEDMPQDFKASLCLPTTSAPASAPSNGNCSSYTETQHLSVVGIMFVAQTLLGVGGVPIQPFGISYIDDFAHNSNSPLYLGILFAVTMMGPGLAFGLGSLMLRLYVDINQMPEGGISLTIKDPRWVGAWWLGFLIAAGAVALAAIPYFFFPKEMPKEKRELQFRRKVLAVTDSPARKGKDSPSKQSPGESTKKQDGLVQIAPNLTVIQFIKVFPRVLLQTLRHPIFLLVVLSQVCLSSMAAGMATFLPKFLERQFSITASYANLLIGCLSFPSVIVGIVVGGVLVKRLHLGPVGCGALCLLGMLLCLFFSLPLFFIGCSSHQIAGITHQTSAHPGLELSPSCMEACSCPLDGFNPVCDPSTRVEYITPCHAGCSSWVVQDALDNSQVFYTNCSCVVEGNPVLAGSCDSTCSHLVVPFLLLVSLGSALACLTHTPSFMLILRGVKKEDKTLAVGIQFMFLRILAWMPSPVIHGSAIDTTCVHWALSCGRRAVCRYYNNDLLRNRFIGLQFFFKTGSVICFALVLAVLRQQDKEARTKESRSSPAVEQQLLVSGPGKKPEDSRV

[6] = molecular target: T6, Solute carrier organic anion transporter family member 1A1 (Rattus norvegicus, UniProt P46720); assay: as §1; format: functional, cell-based; settings: oocyte
T6 sequence (P46720 whole entry): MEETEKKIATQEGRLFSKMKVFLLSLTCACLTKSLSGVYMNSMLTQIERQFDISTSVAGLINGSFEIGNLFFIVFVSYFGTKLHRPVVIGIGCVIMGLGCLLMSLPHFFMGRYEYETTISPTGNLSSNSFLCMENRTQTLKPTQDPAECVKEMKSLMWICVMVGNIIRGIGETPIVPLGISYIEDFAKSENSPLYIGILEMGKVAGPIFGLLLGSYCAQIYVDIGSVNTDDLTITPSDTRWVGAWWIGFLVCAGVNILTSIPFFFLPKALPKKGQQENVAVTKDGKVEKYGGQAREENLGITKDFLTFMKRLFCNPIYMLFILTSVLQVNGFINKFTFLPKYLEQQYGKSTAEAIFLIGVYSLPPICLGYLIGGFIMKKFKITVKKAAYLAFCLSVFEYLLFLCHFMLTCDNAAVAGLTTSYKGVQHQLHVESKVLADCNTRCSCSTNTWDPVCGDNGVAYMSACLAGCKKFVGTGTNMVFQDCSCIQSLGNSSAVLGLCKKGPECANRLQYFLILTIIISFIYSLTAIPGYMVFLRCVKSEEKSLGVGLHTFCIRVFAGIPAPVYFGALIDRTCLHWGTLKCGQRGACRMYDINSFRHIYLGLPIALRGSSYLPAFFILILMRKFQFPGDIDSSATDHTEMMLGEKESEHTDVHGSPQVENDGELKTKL

[7] = molecular target: T7, Hepatic sodium/bile acid cotransporter (Rattus norvegicus, UniProt P26435); assay: as §1; format: functional, cell-based; settings: oocyte
T7 sequence (P26435 whole entry): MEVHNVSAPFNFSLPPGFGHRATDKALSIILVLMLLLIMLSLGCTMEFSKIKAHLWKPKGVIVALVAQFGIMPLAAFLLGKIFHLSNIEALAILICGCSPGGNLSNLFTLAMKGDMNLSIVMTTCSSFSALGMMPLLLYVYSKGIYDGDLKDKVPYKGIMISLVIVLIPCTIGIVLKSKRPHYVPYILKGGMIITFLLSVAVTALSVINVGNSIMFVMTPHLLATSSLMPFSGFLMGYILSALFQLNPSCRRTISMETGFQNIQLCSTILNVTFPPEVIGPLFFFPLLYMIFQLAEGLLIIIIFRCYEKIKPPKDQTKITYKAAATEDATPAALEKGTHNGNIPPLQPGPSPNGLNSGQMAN

[8] = molecular target: T4, Solute carrier organic anion transporter family member 1A4; assay: (§2) TP_TRANSPORTER: inhibition of taurocholate uptake (taurocholate: 10 uM) in Xenopus laevis oocytes; format: functional, cell-based; settings: oocyte
[9] = molecular target: T6, Solute carrier organic anion transporter family member 1A1; assay: as §2; format: functional, cell-based; settings: oocyte
[10] = molecular target: T8, Solute carrier organic anion transporter family member 1B2 (Rattus norvegicus, UniProt Q9QZX8); assay: as §2; format: functional, cell-based; settings: oocyte
T8 sequence (Q9QZX8 whole entry): T1 sequence (Q9QZX8 whole entry)

[11] = molecular target: T7, Hepatic sodium/bile acid cotransporter; assay: as §2; format: functional, cell-based; settings: oocyte

Structure (SMILES) | Km [1] [µM] | Km [2] [µM] | Km [3] [µM] | Activity [4] | Activity [5] | Activity [6] | Activity [7] | Activity [8] | Activity [9] | Activity [10] | Activity [11]
CC(O)C[C@@H]1NC(=O)[C@@H]2Cc3c([nH]c4ccccc34)SC[C@@H](NC(=O)[C@H]([C@@H](C)O)NC(=O)[C@H](C)NC1=O)C(=O)N1C[C@H](O)C[C@H]1C(=O)N[C@@H](C)C(=O)N2 (stereo partly specified) [DEMETHYLPHALLOIN] | 5.7 | 7.5 | 17 | is not a substrate [-] | is not a substrate [-] | is not a substrate [-] | is not a substrate [-] | – | – | – | –
C[C@@H]1NC(=O)[C@H](C[C@@](C)(O)CO)NC(=O)[C@@H]2Cc3c([nH]c4ccccc34)SC[C@H](NC(=O)[C@@H]([C@H](C)O)NC1=O)C(=O)N1C[C@@H](O)C[C@H]1C(=O)N[C@@H](C)C(=O)N2 [PHALLOIDIN] (cyclo(A[dT]C[cisHyp]A[Trp(2-yl)][Leu(4R-OH,5-OH)]); thioether 3-6) | – | – | – | – | – | – | – | is not an inhibitor [-] | is not an inhibitor [-] | inhibitor [+] | is not an inhibitor [-]
